For 7 compounds, pest or weed control results are on record in US20110086759A1, “CHEMICAL COMPOUNDS” (SYNGENTA CROP PROTECTION, INC., priority 2007, published 2011).

Common to all, as to format: in vivo
In assay [1] the test system is Alopecurus myosuroides (ALOMY). Kind of assay: Pre-emergence biological efficacy, glasshouse pot test. The settings on record: 312 h, evaluated after 13 days (100=total damage; 0=no damage), read-out: Percentage damage ALOMY; for pest or weed control at 1000 g/ha: pre-emergence, 1,000 g/ha. The procedure, abridged:
(§1)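 Compound was applied as a spray one day after sowing, at a final dose of 1000 or 250 g/ha. Plants grew under 14 h light, 24/16 °C and 65% humidity, and injury was assessed on day 13 on a 0–100 scale.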

In assay [2] the test system is Amaranthus retoflexus (AMARE). The assay is described as above. The note with it: Amaranthus retroflexus, 312 h, evaluated after 13 days (100=total damage; 0=no damage), read-out: Percentage damage AMARE; for pest or weed control at 1000 g/ha: pre-emergence, 1,000 g/ha. The procedure, abridged:
as §1

The test system of assay [3] is Echinochloa crus-galli (ECHCG). The description is as above. The settings on record: 312 h, evaluated after 13 days (100=total damage; 0=no damage), read-out: Percentage damage ECHCG; for pest or weed control at 1000 g/ha: pre-emergence, 1,000 g/ha. The procedure, abridged: as §1
Assay [4] has as its system Ipomea hederaceae (IPOHE). Described as above. The note with it: Ipomoea hederacea, 312 h, evaluated after 13 days (100=total damage; 0=no damage), read-out: Percentage damage IPOHE; for pest or weed control at 1000 g/ha: pre-emergence, 1,000 g/ha. In a few lines: as §1
The subject of assay [5] is Setaria faberi (SETFA). Described as above. The note with it: 312 h, evaluated after 13 days (100=total damage; 0=no damage), read-out: Percentage damage SETFA; for pest or weed control at 1000 g/ha: pre-emergence, 1,000 g/ha. The procedure, abridged:
as §1

For assay [6], the system named is Solanum nigrum (SOLNI). The description is as above. The settings on record: 312 h, evaluated after 13 days (100=total damage; 0=no damage), read-out: Percentage damage SOLNI; for pest or weed control at 1000 g/ha: pre-emergence, 1,000 g/ha. The procedure, abridged:
as §1

Assay [7] concerns Alopecurus myosuroides (ALOMY). The assay is described as follows: Post-emergence biological efficacy, glasshouse pot test. The note with it: 312 h, evaluated after 13 days (100=total damage; 0=no damage), read-out: Percentage damage caused to weed species, ALOMY; for pest or weed control at 1000 g/ha: post-emergence, 1,000 g/ha. In a few lines:
(§2)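 Plants were sown in standard soil and grown 8 days in a glasshouse (24/16° C. day/night, 14 hours light, 65% humidity), then sprayed post-emergence at 1000 or 250 g/ha from acetone/water (50:50) with 0.5% Tween 20. Damage was scored visually after 13 days (0 = none, 100 = total).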

The subject of assay [8] is Amaranthus retoflexus (AMARE). The assay is described as above. The note with it: Amaranthus retroflexus, 312 h, evaluated after 13 days (100=total damage; 0=no damage), read-out: Percentage damage caused to weed species, AMARE; for pest or weed control at 1000 g/ha: post-emergence, 1,000 g/ha. In a few lines: as §2
Assay [9] deals with Echinochloa crus-galli (ECHCG). The description is as above. The settings on record: 312 h, evaluated after 13 days (100=total damage; 0=no damage), read-out: Percentage damage caused to weed species, ECHCG; for pest or weed control at 1000 g/ha: post-emergence, 1,000 g/ha. The procedure, abridged: as §2
The test system of assay [10] is Ipomea hederaceae (IPOHE). The description is as above. The settings on record: Ipomoea hederacea, 312 h, evaluated after 13 days (100=total damage; 0=no damage), read-out: Percentage damage caused to weed species, IPOHE; for pest or weed control at 1000 g/ha: post-emergence, 1,000 g/ha. The procedure, abridged:
as §2

Assay [11] relates to Setaria faberi (SETFA). Described as above. The settings on record: 312 h, evaluated after 13 days (100=total damage; 0=no damage), read-out: Percentage damage caused to weed species, SETFA; for pest or weed control at 1000 g/ha: post-emergence, 1,000 g/ha. The procedure, abridged:
as §2

Assay [12] deals with Solanum nigrum (SOLNI). The description is as above. The settings on record: 312 h, evaluated after 13 days (100=total damage; 0=no damage), read-out: Percentage damage caused to weed species, SOLNI; for pest or weed control at 1000 g/ha: post-emergence, 1,000 g/ha. In a few lines:
as §2

Take `COC(=O)c1nc(C2CC2)nc(NCc2ccccc2Br)c1Cl` [Compound 4-67, 4-(2-Bromophenyl-methylamino)-5-chloro-2-cyclopropyl-6-methoxycarbonyl-pyrimidine]: the pest or weed control at 250 g/ha in assay [1] (pre-emergence, 250 g/ha) came out at 0%; in assay [2] (pre-emergence, 250 g/ha) it was 40%; in assay [3] (pre-emergence, 250 g/ha) it was 0%; in assay [4] (pre-emergence, 250 g/ha), 0%; in the assay on Setaria faberi (SETFA) [5] (pre-emergence, 250 g/ha), 0%; with Solanum nigrum (SOLNI) [6] (pre-emergence, 250 g/ha), 20%. Moreover, the pest or weed control at 250 g/ha in [7] (post-emergence, 250 g/ha) worked out at 20%; in [8] (post-emergence, 250 g/ha), 90%; in assay [9] (post-emergence, 250 g/ha), 50%; in [10] (post-emergence, 250 g/ha) it was 80%; in the assay on Setaria faberi (SETFA) [11] (post-emergence, 250 g/ha), 70%; in the assay on Solanum nigrum (SOLNI) [12] (post-emergence, 250 g/ha), 90%.

With `COC(=O)c1nc(C2CC2)nc(NCc2cccc(Br)c2)c1Cl` [Compound 4-68, 4-(3-Bromophenyl-methylamino)5-chloro-2-cyclopropyl-6-methoxycarbonyl-pyrimidine], the pest or weed control at 1000 g/ha in assay [1] amounted to 10%; in [2], 50%; in [3], 10%; in assay [4], 60%; in the assay on Setaria faberi (SETFA) [5] it was 10%; in the assay on Solanum nigrum (SOLNI) [6], 20%. The pest or weed control at 1000 g/ha in [7] was determined as 20%; in assay [8] it was 100%; in assay [9], 60%; in assay [10], 100%; in the assay with Setaria faberi (SETFA) [11] it was 90%; with Solanum nigrum (SOLNI) [12], 90%.

In the case of `COC(=O)c1nc(C2CC2)nc(NCc2cccc(I)c2)c1Cl` [Compound 4-70, 5-Chloro-2-cyclopropyl-4-(3-iodophenylmethyl-amino)-6-methoxy-carbonylpyrimidine], the pest or weed control at 1000 g/ha in assay [1] turned out to be 10%; in assay [2], 40%; in assay [3], 30%; in assay [4] it was 60%; in the assay on Setaria faberi (SETFA) [5], 20%; with Solanum nigrum (SOLNI) [6], 30%. Further, the pest or weed control at 1000 g/ha was determined as 20% in assay [7]; 100% in assay [8]; 70% in assay [9]; 100% in [10]; 90% with Setaria faberi (SETFA) [11]; 100% with Solanum nigrum (SOLNI) [12].

As to `COC(=O)c1nc(C2CC2)nc(NCc2ccccc2C)c1Cl` [Compound 4-71, 5-Chloro-2-cyclopropyl-6-methoxycarbonyl-4-(2-methylphenyl-methylamino)-pyrimidine], the pest or weed control at 1000 g/ha in assay [1] is 20%; in assay [2], 90%; in assay [3], 20%; in assay [4], 70%; in the assay on Setaria faberi (SETFA) [5], 20%; in the assay with Solanum nigrum (SOLNI) [6] it was 20%. Further, the pest or weed control at 1000 g/ha in assay [7] amounted to 20%; in [8], 100%; in assay [9] it was 60%; in assay [10], 100%; in the assay with Setaria faberi (SETFA) [11], 80%; in the assay on Solanum nigrum (SOLNI) [12], 90%.

With `COC(=O)c1nc(C2CC2)nc(NCc2cccc(C)c2)c1Cl` [Compound 4-72, 5-Chloro-2-cyclopropyl-6-methoxycarbonyl-4-(3-methylphenyl-methylamino)-pyrimidine], the pest or weed control at 1000 g/ha amounted to 10% in assay [1]; 60% in assay [2]; 40% in assay [3]; 40% in assay [4]; 10% in the assay on Setaria faberi (SETFA) [5]; 40% in the assay with Solanum nigrum (SOLNI) [6]. In addition, the pest or weed control at 1000 g/ha was determined as 10% in assay [7]; 100% in assay [8]; 50% in assay [9]; 100% in assay [10]; 30% in the assay with Setaria faberi (SETFA) [11]; 100% in the assay with Solanum nigrum (SOLNI) [12].

For `COC(=O)c1nc(C2CC2)nc(NCc2ccc(C)cc2)c1Cl` [Compound 4-73, 5-Chloro-2-cyclopropyl-6-methoxycarbonyl-4-(4-methylphenyl-methylamino)-pyrimidine], the pest or weed control at 1000 g/ha worked out at 10% in assay [1]; 70% in [2]; 30% in [3]; 80% in assay [4]; 20% with Setaria faberi (SETFA) [5]; 60% in the assay with Solanum nigrum (SOLNI) [6]. The pest or weed control at 1000 g/ha is 20% in [7]; 100% in [8]; 60% in [9]; 100% in assay [10]; 80% with Setaria faberi (SETFA) [11]; 100% in the assay on Solanum nigrum (SOLNI) [12].

On to `COC(=O)c1nc(C2CC2)nc(NCc2ccc(C(C)C)cc2)c1Cl` [Compound 4-74, 5-Chloro-2-cyclopropyl-4-(4-isopropylphenyl-methlamino)-6-methoxycarbonyl-pyrimidine], for which the pest or weed control at 1000 g/ha is 10% in [1]; 80% in assay [2]; 30% in assay [3]; 60% in [4]; 10% with Setaria faberi (SETFA) [5]; 70% with Solanum nigrum (SOLNI) [6]. Further, the pest or weed control at 1000 g/ha is 20% in assay [7]; 90% in assay [8]; 70% in assay [9]; 100% in assay [10]; 80% in the assay on Setaria faberi (SETFA) [11]; 100% in the assay on Solanum nigrum (SOLNI) [12].
